SMILES strings stand for the structures. Values after ≈ are worked out from the molar mass of the structure shown.

Assay [1] has as its system Polyketide synthase Pks13 (Mycobacterium tuberculosis (strain ATCC 25618 / H37Rv)), I6X8D2 [N1640S]. Kind of assay: Binding affinity to Mycobacterium tuberculosis Pks13-TE N1640S mutant expressed in Escherichia coli BL21(DE3) pLysS assessed as change in melting temperature at 1:5 compound to protein ratio by nanoDSF thermal stability analysis. A general note: In DSF a fluorescence change marks the thermal transition of the protein.

The test system is the same in assay [2]. Kind of assay: Binding affinity to Mycobacterium tuberculosis Pks13-TE N1640S mutant expressed in Escherichia coli BL21(DE3) pLysS assessed as change in melting temperature at 1:10 compound to protein ratio by nanoDSF thermal stability analysis.
In assay [3] the test system is Polyketide synthase Pks13 (Mycobacterium tuberculosis (strain ATCC 25618 / H37Rv)), I6X8D2 [N1640K]. The experiment in a line: Binding affinity to Mycobacterium tuberculosis Pks13-TE N1640K mutant expressed in Escherichia coli BL21(DE3) pLysS assessed as change in melting temperature at 1:5 compound to protein ratio by nanoDSF thermal stability analysis.
For assay [4] the test system is unchanged. Kind of assay: Binding affinity to Mycobacterium tuberculosis Pks13-TE N1640K mutant expressed in Escherichia coli BL21(DE3) pLysS assessed as change in melting temperature at 1:10 compound to protein ratio by nanoDSF thermal stability analysis.
In assay [5] the test system is Mycobacterium tuberculosis. Format: functional, Vero. As to conditions: V2475, 168 h, time 7 day.
Assay [6] has as its system Mycobacterium tuberculosis. Format: functional, Vero. As to conditions: KZN494, 168 h, time 7 day.
In assay [7] the test system is Mycobacterium tuberculosis. In kind it is functional, Vero. Conditions: TF274, 168 h, time 7 day.
For assay [8], the system named is Mycobacterium tuberculosis. Format: functional, Vero. Conditions: R506, 168 h, time 7 day.

Consider `O=c1oc2cc(O)ccc2c2oc3ccc4c(c3c12)CN(CC1CC1)CO4`, for which the ΔTm in assay [1] is 8.6 °C; in assay [2], 9.3 °C; in assay [3], 0.2 °C; in assay [4], 0.1 °C.

Take `O=c1oc2cc(O)ccc2c2oc3ccc(O)c(CN4CCCCC4)c3c12`: the ΔTm in assay [1] was 11.4 °C; in assay [2] it was 10.5 °C; in assay [3] it was 0.8 °C; in assay [4], 0.9 °C.

`O=c1oc2cc(O)ccc2c2oc3ccc4c(c3c12)CN(C1CCCC1)CO4`: the ΔTm is 10.1 °C in assay [1], 10.9 °C in assay [2], 0.3 °C in assay [3] and 0.1 °C in assay [4]. Also, the MIC90 in assay [5], in assay [6], in assay [7] and in assay [8] was 0.0039 µg/mL (≈ 0.0103 µM) each time.

For the molecule `O=c1oc2cc(O)ccc2c2oc3ccc(O)c(CN4CC[C@H](F)C4)c3c12`, the results for the ΔTm in assay [1] and in assay [2] were 6.9 °C and 7.9 °C, respectively.

As to `COc1ccc2c(c1)oc(=O)c1c2oc2ccc(O)c(CN3CCC(F)(F)CC3)c21`, the ΔTm was determined as 1.9 °C in assay [1] and 1.7 °C in assay [2].

For `O=c1oc2cc(O)ccc2c2oc3ccc(O)c(CN4CCC(F)CC4)c3c12`, the ΔTm worked out at 8.7 °C in assay [1], 9.6 °C in assay [2], 1.5 °C in assay [3] and 1 °C in assay [4]. Besides, the MIC90 in assay [5] is 0.125 µg/mL (≈ 0.326 µM); in assay [6], 0.0625 µg/mL (≈ 0.163 µM); in assay [7] it was 0.0625 µg/mL (≈ 0.163 µM); in assay [8] it was 0.0625 µg/mL (≈ 0.163 µM).

For orientation: ΔTm means the change in melting temperature against a reference sample. Usually MIC90 stands for an inhibitory concentration at the 90% level, which refers to growth in some studies and to a panel of isolates in others. A high value points to weaker potency.

(Values after ChEMBL document CHEMBL5104197, “Structure-Based Optimization of Coumestan Derivatives as Polyketide Synthase 13-Thioesterase(Pks13-TE) Inhibitors with Improved hERG Profiles for Mycobacterium tuberculosis Treatment” (J Med Chem, 2022).)
